Test results published in ChEMBL document CHEMBL4507326, “Data for DCP probe TP-030-2” (2021).

Assays:
[1] = target: ALK tyrosine kinase receptor (Homo sapiens, UniProt Q9UM73); assay: ALK(ALK1LGY1) Takeda global kinase panel
[2] = target: PAS domain-containing serine/threonine-protein kinase (Homo sapiens, UniProt Q96RG2); assay: PASK(PASKPHY1) Takeda global kinase panel
[3] = target: Mitogen-activated protein kinase kinase kinase 14 (Homo sapiens, UniProt Q99558); assay: NIK(M314LGP1) Takeda global kinase panel
[4] = target: Bone morphogenetic protein receptor type-1A (Homo sapiens, UniProt P36894); assay: BMPR1A(BM1APHRG) Takeda global kinase panel
[5] = target: G protein-coupled receptor kinase 4 (Homo sapiens, UniProt P32298); assay: GRK4(GRK4LGRI) Takeda global kinase panel
[6] = target: Casein kinase I isoform gamma-2 (Homo sapiens, UniProt P78368); assay: CK1gamma2(C1G2LGI1) Takeda global kinase panel
[7] = target: D(1A) dopamine receptor (Homo sapiens) (UniProt P21728); conditions: Compound concentration 10.0 uM
[8] = target: Phosphatidylinositol 4,5-bisphosphate 3-kinase catalytic subunit delta isoform (Homo sapiens, UniProt O00329); assay: PI3KCD(PI3DCGRK) Takeda global kinase panel
Aurora kinase B = Aurora kinase B (Homo sapiens, UniProt Q96GD4); assay: AurB [Aur1(AURBPGE1)] Takeda global kinase panel
[9] = target: Kappa-type opioid receptor (Homo sapiens) (UniProt P41145); conditions: Compound concentration 10.0 uM
[10] = target: Sigma intracellular receptor 2 (Homo sapiens, UniProt Q5BJF2); conditions: Compound concentration 10.0 uM
[11] = target: Protein kinase C delta type (Homo sapiens, UniProt Q05655); assay: PKCdelta(PRKDPFP1) Takeda global kinase panel
[12] = target: Dual specificity tyrosine-phosphorylation-regulated kinase 1A (Homo sapiens, UniProt Q13627); assay: DYRK1A(DY1ALGP1) Takeda global kinase panel
[13] = target: Tyrosine-protein kinase ABL1 (Homo sapiens, UniProt P00519); assay: Abl(ABL1IHY1) Takeda global kinase panel
[14] = target: Serine/threonine-protein kinase N2 (Homo sapiens, UniProt Q16513); assay: PKN2 [PRK2(PKN2LGG5)] Takeda global kinase panel
[15] = target: Serine/threonine-protein kinase N1 (Homo sapiens, UniProt Q16512); assay: PKN1 [PRK1(PKN1LGY1)] Takeda global kinase panel
[16] = target: Sodium-dependent serotonin transporter (Homo sapiens) (UniProt P31645); conditions: Compound concentration 10.0 uM
[17] = target: Histamine H1 receptor (Homo sapiens) (UniProt P35367); conditions: Compound concentration 10.0 uM
[18] = target: Cannabinoid receptor 1 (Homo sapiens) (UniProt P21554); assay: Inhibition of Cannabinoid CB1 at compound concentration of 10.0 uM in the Eurofins-Panlabs radioligand binding assay (Eurofins_assay_217050); parameters: ligand concentration 2 nM; conditions: Compound concentration 10.0 uM
[19] = target: Protein kinase C beta type (Homo sapiens, UniProt P05771); assay: PKCbeta(PRKBPHY3) Takeda global kinase panel
[20] = target: Serine/threonine-protein kinase PAK 6 (Homo sapiens, UniProt Q9NQU5); assay: PAK6(PAK6CGY1) Takeda global kinase panel
[21] = target: Mitogen-activated protein kinase 4 (Homo sapiens, UniProt P31152); assay: ERK4(MAP4LGY1) Takeda global kinase panel
[22] = target: Acetylcholine receptor subunit alpha (Homo sapiens) (UniProt P02708); assay: Inhibition of Nicotinic Acetylcholine D1, Bungarotoxin at 10 µM in the Eurofins-Panlabs radioligand binding assay (Eurofins_assay_258700); conditions: Compound concentration 10.0 uM
[23] = target: T1, 5-hydroxytryptamine receptor 2A (Homo sapiens, UniProt P28223); assay: GPCRScan assay: inhibition of 5-HT2A; parameters: radioligand conc. used [nm] 1.2 – 2.4, parental cells HEKT
[24] = target: Alpha-2C adrenergic receptor (Homo sapiens) (UniProt P18825); conditions: Compound concentration 10.0 uM
Mus musculus = species on record: Mus musculus; assay: Inhibition of Phorbol Ester at 10 µM in the Eurofins-Panlabs radioligand binding assay (Eurofins_assay_264500); parameters: ligand concentration 3 nM; conditions: Compound concentration 10.0 uM
[25] = target: Glutamate NMDA receptor (Rattus norvegicus) (UniProt P35439+Q00959+Q00960+Q00961+Q62645+Q8VHN2+Q9R1M7); conditions: Compound concentration 10.0 uM
[26] = target: Cyclin-G-associated kinase (Homo sapiens, UniProt O14976); assay: GAK(GAK1PGF1) Takeda global kinase panel
[27] = target: Alpha-1A adrenergic receptor (Homo sapiens) (UniProt P35348); assay: Inhibition of Adrenergic alpha1A at compound concentration of 10.0 uM in the Eurofins-Panlabs radioligand binding assay (Eurofins_assay_203110); parameters: ligand concentration 0.25 nM; conditions: Rattus norvegicus; Compound concentration 10.0 uM
[28] = target: Protein kinase C theta type (Homo sapiens, UniProt Q04759); assay: PKCtheta(PRKQLGM5) Takeda global kinase panel
[29] = target: Tyrosine-protein kinase Lck (Homo sapiens, UniProt P06239); assay: Lck(LCK1LGF1) Takeda global kinase panel
[30] = target: Serine/threonine-protein kinase VRK1 (Homo sapiens, UniProt Q99986); assay: VRK1(VRK1LGRI) Takeda global kinase panel
[31] = target: Alpha-2C adrenergic receptor (Homo sapiens, UniProt P18825); assay: GPCRScan assay: inhibition of Alpha2C; parameters: radioligand conc. used [nm] 0.5 – 1.0, parental cells stable MDCK
[32] = target: Serine/threonine-protein kinase H1 (Homo sapiens, UniProt P11801); assay: PSKH1(PSH1LGRH) Takeda global kinase panel
[33] = target: TRAF2 and NCK-interacting protein kinase (Homo sapiens, UniProt Q9UKE5); assay: TNIK [ZC2(TNIKLGF1)] Takeda global kinase panel
[34] = target: Fibroblast growth factor receptor 3 (Homo sapiens, UniProt P22607); assay: FGFR3(FGF3LGF1) Takeda global kinase panel
[35] = target: Death-associated protein kinase 3 (Homo sapiens, UniProt O43293); assay: DAPK3(DAP3LGP1) Takeda global kinase panel
[36] = target: Insulin-like growth factor 1 receptor (Homo sapiens, UniProt P08069); assay: IGF1R(IGF1LGF1) Takeda global kinase panel
[37] = target: Vascular endothelial growth factor receptor 2 (Homo sapiens, UniProt P35968); assay: KDR(KDR1CGY1) Takeda global kinase panel
[38] = target: Inhibitor of nuclear factor kappa-B kinase subunit alpha (Homo sapiens, UniProt O15111); assay: IKKalpha(CHUKLGP1) Takeda global kinase panel
[39] = target: Endothelin-1 receptor (Homo sapiens) (UniProt P25101); conditions: Compound concentration 10.0 uM
[40] = target: T1, 5-hydroxytryptamine receptor 2A; conditions: Compound concentration 10.0 uM
[41] = target: Mitogen-activated protein kinase kinase kinase 9 (Homo sapiens, UniProt P80192); assay: MLK1(M3K9LGF1) Takeda global kinase panel
[42] = target: Serine/threonine-protein kinase ULK2 (Homo sapiens, UniProt Q8IYT8); assay: ULK2(ULK2LGY1) Takeda global kinase panel

T1 sequence (P28223 whole entry): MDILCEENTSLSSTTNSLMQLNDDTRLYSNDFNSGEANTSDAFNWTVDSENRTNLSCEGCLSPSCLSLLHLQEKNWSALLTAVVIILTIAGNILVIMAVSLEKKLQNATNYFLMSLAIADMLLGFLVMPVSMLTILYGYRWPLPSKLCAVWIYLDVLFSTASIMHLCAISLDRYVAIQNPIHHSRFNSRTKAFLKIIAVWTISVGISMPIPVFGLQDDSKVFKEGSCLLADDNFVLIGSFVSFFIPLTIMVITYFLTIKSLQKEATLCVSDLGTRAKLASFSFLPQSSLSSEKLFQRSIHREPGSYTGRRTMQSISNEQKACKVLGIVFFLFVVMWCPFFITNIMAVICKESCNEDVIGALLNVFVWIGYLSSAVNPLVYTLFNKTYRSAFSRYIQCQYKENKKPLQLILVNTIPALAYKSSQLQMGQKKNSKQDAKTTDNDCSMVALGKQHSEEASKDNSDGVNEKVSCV
Chain of Alpha-2C adrenergic receptor (P18825 whole entry): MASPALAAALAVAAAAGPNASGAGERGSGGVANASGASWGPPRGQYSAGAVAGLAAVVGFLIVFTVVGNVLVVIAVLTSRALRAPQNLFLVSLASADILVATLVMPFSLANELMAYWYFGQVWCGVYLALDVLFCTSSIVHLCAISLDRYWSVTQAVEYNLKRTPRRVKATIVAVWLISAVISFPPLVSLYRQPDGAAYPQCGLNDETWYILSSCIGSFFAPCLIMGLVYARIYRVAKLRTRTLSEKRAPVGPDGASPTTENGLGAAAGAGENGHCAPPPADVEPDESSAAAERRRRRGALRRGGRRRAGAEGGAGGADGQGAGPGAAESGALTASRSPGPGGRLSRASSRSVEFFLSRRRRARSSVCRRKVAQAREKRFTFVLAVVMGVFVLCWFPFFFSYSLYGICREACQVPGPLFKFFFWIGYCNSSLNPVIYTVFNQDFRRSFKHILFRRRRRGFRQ
Chain of Inhibitor of nuclear factor kappa-B kinase subunit alpha (O15111 whole entry): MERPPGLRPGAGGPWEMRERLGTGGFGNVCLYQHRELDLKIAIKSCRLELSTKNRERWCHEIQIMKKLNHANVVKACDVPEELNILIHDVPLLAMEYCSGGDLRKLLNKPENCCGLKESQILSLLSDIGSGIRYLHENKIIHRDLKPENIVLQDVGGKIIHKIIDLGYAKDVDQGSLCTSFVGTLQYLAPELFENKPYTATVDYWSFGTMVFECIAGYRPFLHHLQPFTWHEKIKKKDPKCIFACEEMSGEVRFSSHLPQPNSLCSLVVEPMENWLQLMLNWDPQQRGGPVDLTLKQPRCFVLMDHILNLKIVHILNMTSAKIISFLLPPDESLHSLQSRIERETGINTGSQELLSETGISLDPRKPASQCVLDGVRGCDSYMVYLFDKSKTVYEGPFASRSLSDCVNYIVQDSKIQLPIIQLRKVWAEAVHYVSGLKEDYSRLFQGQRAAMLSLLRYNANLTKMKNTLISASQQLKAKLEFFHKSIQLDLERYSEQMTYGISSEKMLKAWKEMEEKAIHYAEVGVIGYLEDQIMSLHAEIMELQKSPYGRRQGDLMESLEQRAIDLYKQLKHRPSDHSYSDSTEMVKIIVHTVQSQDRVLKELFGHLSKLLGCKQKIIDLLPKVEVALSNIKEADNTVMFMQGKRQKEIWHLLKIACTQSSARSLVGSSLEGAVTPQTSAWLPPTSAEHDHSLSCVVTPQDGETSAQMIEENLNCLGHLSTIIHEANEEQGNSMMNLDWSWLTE
Chain of Serine/threonine-protein kinase PAK 6 (Q9NQU5 whole entry): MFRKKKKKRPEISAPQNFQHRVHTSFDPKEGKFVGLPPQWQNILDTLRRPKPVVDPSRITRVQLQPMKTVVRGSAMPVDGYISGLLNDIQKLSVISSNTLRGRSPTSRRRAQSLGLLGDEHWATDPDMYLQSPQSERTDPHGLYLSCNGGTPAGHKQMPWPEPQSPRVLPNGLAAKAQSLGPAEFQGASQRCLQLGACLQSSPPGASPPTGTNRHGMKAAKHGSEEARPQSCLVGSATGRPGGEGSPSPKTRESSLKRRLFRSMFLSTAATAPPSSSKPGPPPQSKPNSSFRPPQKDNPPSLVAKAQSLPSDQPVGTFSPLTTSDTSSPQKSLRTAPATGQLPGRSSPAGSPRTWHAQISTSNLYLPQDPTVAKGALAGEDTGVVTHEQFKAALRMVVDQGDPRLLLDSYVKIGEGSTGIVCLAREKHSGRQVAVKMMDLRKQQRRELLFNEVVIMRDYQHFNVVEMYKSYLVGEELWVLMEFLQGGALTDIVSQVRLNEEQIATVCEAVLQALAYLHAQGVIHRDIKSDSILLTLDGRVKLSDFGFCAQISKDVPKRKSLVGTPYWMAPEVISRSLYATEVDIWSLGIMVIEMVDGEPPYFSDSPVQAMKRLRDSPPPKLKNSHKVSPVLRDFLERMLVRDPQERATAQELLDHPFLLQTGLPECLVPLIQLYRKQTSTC
Chain of Bone morphogenetic protein receptor type-1A (P36894 whole entry): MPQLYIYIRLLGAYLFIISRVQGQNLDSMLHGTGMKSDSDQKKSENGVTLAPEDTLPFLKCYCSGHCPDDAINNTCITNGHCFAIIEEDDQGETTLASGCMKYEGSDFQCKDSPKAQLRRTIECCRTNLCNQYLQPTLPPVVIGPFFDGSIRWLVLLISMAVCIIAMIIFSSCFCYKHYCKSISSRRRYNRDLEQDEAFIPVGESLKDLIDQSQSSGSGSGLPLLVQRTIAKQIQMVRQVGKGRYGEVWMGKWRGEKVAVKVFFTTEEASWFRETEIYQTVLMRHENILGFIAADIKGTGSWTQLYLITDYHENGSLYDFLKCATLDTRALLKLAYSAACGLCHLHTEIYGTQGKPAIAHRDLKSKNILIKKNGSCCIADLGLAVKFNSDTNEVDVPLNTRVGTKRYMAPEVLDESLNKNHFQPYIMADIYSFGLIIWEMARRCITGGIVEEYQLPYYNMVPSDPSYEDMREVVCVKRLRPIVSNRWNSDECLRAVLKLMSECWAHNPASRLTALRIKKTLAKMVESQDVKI
Chain of Cyclin-G-associated kinase (O14976 whole entry): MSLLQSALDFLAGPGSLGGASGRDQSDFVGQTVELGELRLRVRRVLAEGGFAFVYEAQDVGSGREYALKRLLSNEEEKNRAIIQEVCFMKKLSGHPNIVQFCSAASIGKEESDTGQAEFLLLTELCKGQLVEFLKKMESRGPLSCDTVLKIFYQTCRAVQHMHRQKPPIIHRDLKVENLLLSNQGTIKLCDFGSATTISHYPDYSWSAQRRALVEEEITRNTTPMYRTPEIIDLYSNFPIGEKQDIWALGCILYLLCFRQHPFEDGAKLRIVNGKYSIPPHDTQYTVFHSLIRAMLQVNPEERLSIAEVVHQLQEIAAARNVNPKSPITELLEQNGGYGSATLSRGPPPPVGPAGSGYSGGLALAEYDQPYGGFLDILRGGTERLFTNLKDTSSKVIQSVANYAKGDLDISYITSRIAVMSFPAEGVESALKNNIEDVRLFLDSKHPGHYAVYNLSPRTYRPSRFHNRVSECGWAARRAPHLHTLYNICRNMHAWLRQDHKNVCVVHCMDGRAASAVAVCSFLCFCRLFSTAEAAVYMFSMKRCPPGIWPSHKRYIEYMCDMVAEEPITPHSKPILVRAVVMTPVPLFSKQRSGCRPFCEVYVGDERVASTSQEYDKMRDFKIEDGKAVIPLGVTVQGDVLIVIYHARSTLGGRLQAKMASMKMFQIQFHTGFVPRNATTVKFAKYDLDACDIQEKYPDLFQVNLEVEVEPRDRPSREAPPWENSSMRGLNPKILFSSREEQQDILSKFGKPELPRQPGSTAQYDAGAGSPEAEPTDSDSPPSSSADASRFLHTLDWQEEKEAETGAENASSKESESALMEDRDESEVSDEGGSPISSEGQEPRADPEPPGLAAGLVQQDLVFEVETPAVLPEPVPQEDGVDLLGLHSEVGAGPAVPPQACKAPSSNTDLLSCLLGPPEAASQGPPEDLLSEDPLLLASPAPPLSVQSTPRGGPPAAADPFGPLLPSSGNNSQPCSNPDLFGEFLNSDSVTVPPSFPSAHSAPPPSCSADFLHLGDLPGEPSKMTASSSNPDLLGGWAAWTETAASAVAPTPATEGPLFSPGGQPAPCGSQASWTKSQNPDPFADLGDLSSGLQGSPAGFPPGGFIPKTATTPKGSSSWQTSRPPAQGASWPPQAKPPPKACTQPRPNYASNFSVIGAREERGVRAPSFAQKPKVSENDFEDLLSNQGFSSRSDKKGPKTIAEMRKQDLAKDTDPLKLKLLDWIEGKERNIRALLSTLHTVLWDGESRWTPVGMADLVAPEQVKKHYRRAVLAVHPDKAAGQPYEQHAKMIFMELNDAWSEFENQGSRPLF
Chain of Histamine H1 receptor (Homo sapiens) (P35367 whole entry): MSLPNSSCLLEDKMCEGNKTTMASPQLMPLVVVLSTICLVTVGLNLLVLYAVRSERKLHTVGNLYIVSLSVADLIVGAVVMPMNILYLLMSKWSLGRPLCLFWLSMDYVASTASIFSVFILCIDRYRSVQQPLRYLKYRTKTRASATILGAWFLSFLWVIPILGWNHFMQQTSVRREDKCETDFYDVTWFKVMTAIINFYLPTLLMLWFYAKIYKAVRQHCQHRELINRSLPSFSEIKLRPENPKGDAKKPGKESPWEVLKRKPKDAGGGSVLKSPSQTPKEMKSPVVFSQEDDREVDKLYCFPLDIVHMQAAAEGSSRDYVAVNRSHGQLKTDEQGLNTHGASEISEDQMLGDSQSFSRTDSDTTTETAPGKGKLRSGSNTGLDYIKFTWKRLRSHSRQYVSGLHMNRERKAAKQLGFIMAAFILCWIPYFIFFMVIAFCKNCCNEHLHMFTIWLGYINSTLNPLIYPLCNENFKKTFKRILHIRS
Chain of Sigma intracellular receptor 2 (Q5BJF2 whole entry): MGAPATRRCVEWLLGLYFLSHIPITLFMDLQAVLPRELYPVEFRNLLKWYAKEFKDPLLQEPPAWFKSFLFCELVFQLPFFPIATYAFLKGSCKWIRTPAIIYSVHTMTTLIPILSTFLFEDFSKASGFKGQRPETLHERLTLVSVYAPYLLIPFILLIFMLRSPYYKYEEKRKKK
Chain of Alpha-2C adrenergic receptor (Homo sapiens) (P18825 whole entry): as the sequence (P18825 whole entry) above

For `CN1C(=O)[C@@H](N2CCc3c(nn(Cc4ccccc4)c3Br)C2=O)COc2ccccc21` [TP-030-2], the IC50 [1] was 1000 nM, the IC50 [2] was 1000 nM and the IC50 [3] was 1000 nM. It also gave an IC50 [4] of 1000 nM, an IC50 [5] of 1000 nM and an IC50 [6] of 1000 nM. For the same compound, the inhibition [7] was 16.1%, the IC50 [8] was 1000 nM and the IC50 (Aurora kinase B) was 1000 nM. It also gave an inhibition [9] of 16.5%, an inhibition [10] of 53.9% and an IC50 [11] of 1000 nM. The IC50 [12] was 1000 nM, the IC50 [13] was 1000 nM and the IC50 [14] was 1000 nM. The IC50 [15] was 1000 nM, the inhibition [16] was 5% and the inhibition [17] was 9%. For the same compound, the inhibition [18] was 40%, the IC50 [19] was 1000 nM and the IC50 [20] was 1000 nM. It also gave an IC50 [21] of 1000 nM, an inhibition [22] of -2% and a Ki ([23]; read-out: Ki) of 2070 nM. For the same compound, the Ki ([23]; read-out: pKi (converted)) was 2040 nM, the inhibition [24] was 71.3% and the inhibition (Mus musculus) was 7%. It also gave an inhibition [25] of 6%, an IC50 [26] of 1000 nM and an inhibition [27] of -7%. It also gave an IC50 [28] of 1000 nM, an IC50 [29] of 1000 nM and an IC50 [30] of 1000 nM. For the same compound, the Ki ([31]; read-out: Ki) was 2950 nM, the Ki ([31]; read-out: pKi (converted)) was 2820 nM and the IC50 [32] was 1000 nM. The IC50 [33] was 1000 nM, the IC50 [34] was 1000 nM and the IC50 [35] was 1000 nM. For the same compound, the IC50 [36] was 1000 nM, the IC50 [37] was 1000 nM and the IC50 [38] was 1000 nM. It also gave an inhibition [39] of -3%, an inhibition [40] of 50.6% and an IC50 [41] of 1000 nM. For the same compound, the IC50 [42] was 1000 nM.
